Test results as given in patent US7507766B2, “Treatment of cancers” (Pharma Mar, S.A., priority 2000, dated 2009).
“Also recorded” adds a separate entry of the source. Starred links: 1 amine or outer side, 2 acyl side, 3 side chain; linkers in the order of their positions; H or OH if unused. Positions of bridges follow the written chain, without caps; N, C: chain ends. Non-standard residues stand in square brackets, D forms with d. Residues, ends and D or L forms follow the SMILES beside them. *: point of attachment. X1 = CC[C@H](C)[C@@H](N[*:1])[C@@H](O)CC(=O)O[C@H](C(=O)[C@H](C)C(=O)[*:2])C(C)C; NMeY = CN[C@@H](Cc1ccc(O)cc1)C(=O)O; dNMeL = CN[C@H](CC(C)C)C(=O)O; Pyruvoyl = CC(=O)C(=O)*

How the values were obtained:
P388 leukaemia = conditions: mice; cited from earlier work
[1] = system: solid tumours and non-Hodgkin lymphoma; test: clinical trials: antitumour responses in patients; assay type: in vivo, human
Experimental: (§1) Definitions for patient toxicities are adopted from WHO Criteria and the responses determined following WHO Response Criteria.
(§2) A phase I and pharmacokinetic study of aplidine, given as a 24 h continuous infusion every other week in patients with solid tumours and non-Hodgkin lymphoma

[2] = Phase I study, 24 h continuous infusion every other week: toxicities; assay type: in vivo, human
Experimental: as §1, §2

MDA-MB231 = conditions: aplidine; cited from earlier work
MCF-7 = conditions: aplidine 50 mmol/L; cited from earlier work
[3] = system: human colon cancer cell line, HT-29; conditions: cited from earlier work
VEGF protein = test: production of VEGF protein by tumour cells; assay type: cell-based
B16 melanoma = conditions: mice; cited from earlier work
CT-1 = conditions: cited from earlier work
spermidine and spermine = conditions: cited from earlier work
[4] = Phase I studies: aplidine myotoxicity and L-carnitine as myoprotector; assay type: in vivo, human
Experimental: More generally, the invention involves the use of a muscle protector in conjunction with aplidine therapy. We have found in particular that carnitine is beneficial in treating myotoxicity that is associated with chemotherapy with the experimental drug aplidine. […] When L-carnitine 4.5 g/day was added to the therapy (at doses of 1.5 g three times daily), or 0.1 mg/kg (at doses of 0.033 mg 3 times daily) patients were able to tolerate doses of aplidine up to 6000 mcg/m 2 every second week. […] Therefore, muscle protectors such as L-carnitine is a useful myoprotector for patients being treated with aplidine or an aplidine analogue.
L-carnitine at a dose of 1.5 grams 3 times per day or 0.033 g/kg 3 times per day was started in all patients of study APL-A-003-98.

cell cycle = conditions: cited from earlier work
[5] = Phase I study, 24 h continuous infusion every other week: pharmacokinetics; assay type: in vivo, human
Experimental: as §2

[6] = stability of aplidine solution and lyophilised dosage form; conditions: heat and light stress testing
Experimental: In a currently preferred embodiment freeze-drying was performed from a […] solution of aplidine in 40% (v/v) tert-butanol in Water for Injection (Wfl) containing 25 mg/mL D-mannitol as bulking agent.

CT-2 = conditions: cited from earlier work
human bladder cancer = human bladder cancer animal models; assay type: in vivo; conditions: complete remissions in some animal models
ornithine decarboxylase = target: T1, ornithine decarboxylase (Homo sapiens, UniProt P11926); conditions: all three cell lines; cited from earlier work
T1 construct: endogenous in cells; host or cells: CT-1, CT-2 and HT-29 colon carcinoma cell lines
T1 sequence (P11926 1-461): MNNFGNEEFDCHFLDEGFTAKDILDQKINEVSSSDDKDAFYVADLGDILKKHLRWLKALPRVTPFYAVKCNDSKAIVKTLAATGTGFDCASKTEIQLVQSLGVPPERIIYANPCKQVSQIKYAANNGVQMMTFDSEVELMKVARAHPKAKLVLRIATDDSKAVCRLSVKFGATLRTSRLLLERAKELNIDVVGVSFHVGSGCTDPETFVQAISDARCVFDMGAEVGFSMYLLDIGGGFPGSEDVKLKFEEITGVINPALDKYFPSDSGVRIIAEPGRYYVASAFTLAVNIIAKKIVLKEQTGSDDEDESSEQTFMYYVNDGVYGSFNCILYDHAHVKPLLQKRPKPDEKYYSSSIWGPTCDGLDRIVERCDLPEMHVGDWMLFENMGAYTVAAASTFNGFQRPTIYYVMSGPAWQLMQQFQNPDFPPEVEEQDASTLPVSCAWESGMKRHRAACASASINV

[7] = system: Non-small cell lung cancer, breast cancer and melanoma cell lines; conditions: cited from earlier work
lewis lung carcinomas = conditions: mouse, in vivo; cited from earlier work
[8] = system: gene (FLT1) encoding the receptor of the Vascular Endothelial Growth Factor (VEGF); test: expression of the gene FLT1; assay type: cell-based
human cancer xenografts = conditions: cited from earlier work
[9] = Phase I clinical studies: MTD, DLT and RD per dosing regime; assay type: in vivo, human
Source text: The Recommended Dose (RD) is the highest dose which can be safely administered to a patient producing tolerable, manageable and reversibly toxicity according to the Common Toxicity Criteria established by the National Cancer Institute, (USA) with no more than […] patients presenting any dose limiting toxicities (DLT). Guidelines for cancer therapy frequently call for administration of chemotherapeutic agents at the highest safe dose at which toxicity is manageable in order to achieve maximum efficacy (DeVita, V. T. Jr., Hellman, S. and Rosenberg, S. A., Cancer: Principles and Practice of Oncology, 3rd ed., 1989, Lipincott, Philadelphia).
DLTs for aplidine using this method of treatment were determined in clinical studies. These studies established a recommended dose level for differing kinds of dosing protocols.

[10] = system: panel of 25 human tumor cell lines; test: tumor protection by L-carnitine in panel of tumor cell lines; assay type: cell-based; conditions: initial results
Experimental: The possibility of tumor protection by L-carnitine was evaluated using a panel of 25 human tumor cell lines.

[11] = dose level 200 mcg/m^2/2 wks, of 3 patients
[12] = dose level 400 mcg/m^2/2 wks, of 3 patients
[13] = dose level 800 mcg/m^2/2 wks, of 3 patients
[14] = dose level 1600 mcg/m^2/2 wks, of 6 patients
[15] = dose level 3200 mcg/m^2/2 wks, of 3 patients
[16] = dose level 4000 mcg/m^2/2 wks, of 3 patients
[17] = dose level 5000 mcg/m^2/2 wks, of 3 patients
[18] = dose level 6000 mcg/m^2/2 wks, of 12 patients
[19] = dose level 7000 mcg/m^2/2 wks, of 7 patients

CC[C@H](C)[C@H]1NC(=O)[C@@H](NC(=O)[C@@H](CC(C)C)N(C)C(=O)[C@@H]2CCCN2C(=O)C(C)=O)[C@@H](C)OC(=O)[C@H](Cc2ccc(OC)cc2)N(C)C(=O)[C@@H]2CCCN2C(=O)[C@H](CC(C)C)NC(=O)[C@@H](C)C(=O)[C@H](C(C)C)OC(=O)C[C@@H]1O [aplidine] (Pyruvoyl-P[dNMeL]T[X1]LP[NMeY](Me); ester 3-C)
activity against implanted P388 leukaemia (P388 leukaemia): active | optimal dose (P388 leukaemia): 160 micro/kg | responses in cancer patients ([1]; clinical trials): Responses in cancer patients have been observed | antitumour activity in patients ([1]; patients with NHL and renal carcinoma): Antitumour activity has been also noted | muscle biopsies, E/M finding ([2]; 2 patients): partial disappearance of thick filaments of myosin | dose limiting toxicity (muscular changes), patients ([2]; 6000 mcg/m^2): 1/9 | time to recovery of toxicity after treatment discontinuation ([2]; Pat #27): ≤ 3 weeks | Nausea/vomiting G2, no. patients [2, 11]: 2 | Transaminitis G2, no. patients [2, 11]: 1 | Asthenia G2, no. patients [2, 12]: 2 | Hypertension G2, no. patients [2, 12]: 1 | Nausea/vomiting G2, no. patients [2, 12]: 1 | Flushing G1, no. patients [2, 13]: 1 | Muscle cramps G1 + G2, no. patients [2, 13]: 2 | Asthenia G2, no. patients [2, 14]: 2 | Asthenia G3, no. patients [2, 14]: 1 | Muscle cramps G1 + G2, no. patients [2, 14]: 1 | Nausea/vomiting G2, no. patients [2, 14]: 4 | Transaminitis G3, no. patients [2, 14]: (1) | Asthenia G2, no. patients [2, 15]: 1 | Flushing G1, no. patients [2, 15]: 1 | Muscle cramps G1 + G2, no. patients [2, 15]: 2 | Muscle pain G2, no. patients [2, 15]: (1) | Nausea/vomiting G3, no. patients [2, 15]: (1) | Asthenia G2, no. patients [2, 16]: 1 | Flushing G1, no. patients [2, 16]: 1 | Muscle cramps G1 + G2, no. patients [2, 16]: 2 | Muscle pain G1, no. patients [2, 16]: 2 | Nausea/vomiting G2, no. patients [2, 16]: 2 | Pain central catheter G2, no. patients [2, 16]: 2 | Asthenia G3, no. patients [2, 17]: (1) | CPK elevation G3, no. patients [2, 17]: (1) [1] | CPK elevation G4, no. patients [2, 17]: (1) [1] | Muscle cramps G1 + G2, no. patients [2, 17]: 2 | Muscle pain G1, no. patients [2, 17]: 1 | Muscle weakness G1, no. patients [2, 17]: 1 | Nausea/vomiting G2, no. patients [2, 17]: 1 | Transaminitis G2, no. patients [2, 17]: 1 | Asthenia G2, no. patients [2, 18]: 6 | CPK elevation G2, no. patients [2, 18]: 1(1) | CPK elevation G3, no. patients [2, 18]: 1(1) | Muscle cramps G1 + G2, no. patients [2, 18]: 1 | Muscle pain G1, no. patients [2, 18]: 1 | Muscle pain G2, no. patients [2, 18]: 2 | Muscle weakness G1, no. patients [2, 18]: 1(1) | Muscle weakness G2, no. patients [2, 18]: 1(1) | Nausea/vomiting G2, no. patients [2, 18]: 2 | Asthenia G2, no. patients [2, 19]: 2 | CPK elevation G2, no. patients [2, 19]: 1 | Flushing G1, no. patients [2, 19]: 1 | Muscle pain G1, no. patients [2, 19]: 1 | Nausea/vomiting G2, no. patients [2, 19]: 1 | Neutrophenia G4, no. patients [2, 19]: 1 | Transaminitis G2, no. patients [2, 19]: 1 | growth inhibition (MDA-MB231): 17% | growth inhibition (MCF-7): 47% | cytotoxic activity [3]: dose-dependent cytotoxic activity | production of VEGF protein by tumour cells (VEGF protein): severely inhibit production | activity against implanted B16 melanoma (B16 melanoma): active | optimal dose (B16 melanoma): 160 micro/kg | cytotoxic activity (CT-1): dose-dependent cytotoxic activity | spermidine and spermine in treated cells (spermidine and spermine): significant increase | toxicity in some subjects without L-carnitine ([4]; 24-hour infusion, 4500 mcg/m^2 every week, then 6000 mcg/m^2 every second week): muscular and skeletal toxicity | new dose-limiting factor under L-carnitine prophylaxis ([4]; 24 h every other week infusion study): non-muscular | electron microscopy of muscle, most important change ([4]; biopsied patients): disappearance of thick filaments | dose from which muscle cramps occur (mild cases) ([4]; every 2 weeks): ≥ 3200 mcg/m2 | onset of myotoxicity, number of infusions, median ([4]; in vivo): 4 infusions | relationship of myotoxicity to exposure ([4]; in vivo): related to prolonged exposure rather than high exposure or concentrations | reversible increases in creatin-kinase (CK), grade reached ([4]; more severe cases): ≤ 3 grade | cell cycle perturbations (cell cycle): did not induce any apparent cell cycle pertubations | t ½ in the 3 patients with clear muscular toxicity ([5]; 24 h infusion): > 44 h | coefficient of variation of CL (interpatient) ([5]; human, in vivo): 62% | PK profile ([5]; low sample size): dose-linear | terminal phase median half-life ([5]; preliminary compartmental analysis, 24 h infusion): 25.8 h | initial phase median half-life ([5]; preliminary compartmental analysis, first-order 2-compartment model): 0.64 h | t ½, median ([5]; quartiles 15.7-35.0): 23.8 h | plasma CL, median ([5]; quartiles 192-415): 252 mL/min/m^2 | Vss, median ([5]; quartiles 274-638): 413 L/m^2 | degradation in solution [6]: substantial degradation | cytotoxic activity (CT-2): dose-dependent cytotoxic activity | relative sensitivity among CT-1, CT-2, HT-29 (CT-2; most proliferative line): most sensitive | activity on human bladder cancer (human bladder cancer): exceedingly high activity | ornithine decarboxylase activity (ornithine decarboxylase): decreased ornithine decarboxylase activity | growth of tumour cell lines ([7]; continuous exposure to low concentrations, non-Hodgkin's lymphoma, melanoma, breast, ovarian, non-small cell lung cancers): inhibited the growth | concentration at which cell lines were sensitive ([7]; continuous exposure): >= 0.001 micromol/L | activity in SC implanted lewis lung carcinomas (lewis lung carcinomas): active | expression of FLT1 gene [8]: inhibits expression | remissions (human cancer xenografts; 2.1 mg/kg): near complete remissions in some animals | treated/control (T/C) tumour ratio (human cancer xenografts; 2.1 mg/kg): 9% | maximum tolerated dose (human cancer xenografts; mice): 2.1 mg/kg | dose-limiting toxicity ([9]; 1-hour infusion for 5 consecutive days every 3 weeks): Muscular/long; also recorded: lasting emesis | dose-limiting factor ([9]; 4 Phase I trials): skeletal muscle toxicity | dose-limiting toxicity ([9]; 24 hour infusion every 2 weeks, L-carnitine daily): Flu-like | dose-limiting toxicity ([9]; weekly 24 hour infusion for 3 weeks, 1 week rest): Muscular/; also recorded: hepatic | RD of aplidine ([9]; with L-carnitine 0.1 g/kg/day in 3 portions, for Phase II studies): 7 mg/m^2

C[N+](C)(C)C[C@H](O)CC(=O)[O-] [L-carnitine, reference compound]
increase of aplidine RD by L-carnitine prophylaxis ([4]; human, in vivo): 40% | only toxicity reported for L-carnitine ([4]; human, in vivo): grade 1 abdominal discomfort and diarrhea | L-carnitine dose below which it should not be decreased ([4]; in vivo): ≥ 3.5 grams per day | duration of beneficial effect (normal creatine kinase values) ([4]; in vivo): at least 13 weeks | outcome in 11 patients receiving L-carnitine prophylaxis from the beginning ([4]; in vivo): just an asymptomatic G1 increase in CK | tolerability of L-carnitine ([4]; in vivo): well tolerated | effect of L-carnitine on the antitumor activity of aplidine [10]: lack of effect
